Test results reported in patent US20100041665A1, “N-PHENYL-PRENYLAMINE DERIVATIVES FOR THE TREATMENT OF COGNITIVE, NEURODEGENERATIVE OR NEURONAL DISEASES OR DISORDERS” (NOSCIRA, S.A., priority 2006, published 2010).

Experiments:
[1] = molecular target: Recombinant human glycogen synthase kinase 3 beta (Homo sapiens, UniProt P49841); experiment: GSK-3 beta inhibition assay; assay type: biochemical; details: 0.5 h, percentage of enzyme activity; for remaining activity at 25 µM: compound at 25 μM; for remaining activity at 50 µM: compound at 50 μM
Protocol: GSK-3 beta Inhibition Assay
The GSK-3 beta activity of the compounds of formula (I) according to the present invention was determined by incubation of a mixture of recombinant human GSK-3 enzyme, a phosphate source and GSK-3 substrate in the presence and in the absence of the corresponding test compound, and by measuring the GSK-3 activity of this mixture. The compounds where tested at final concentrations of 25 and 50 μM.
Recombinant human glycogen synthase kinase 3 beta was assayed in MOPS 11 mM, pH 7.4, EDTA 0.2 mM, EGTA 1.25 mM, MgCl2 26.25 mM and sodium orthovanadate 0.25 mM in the presence of 62.5 μM of Phospho-Glycogen Synthase Peptide-2 (GS-2), 0.5 μCi gamma-^33P-ATP and unlabelled ATP at a final concentration of 12.5 μM. The final assay volume was 20 μl. After incubation for 30 minutes at 30° C., 15 μl aliquots were spotted onto P81 phosphocellulose papers. Filters were washed four times for at least 10 minutes each and counted with 1.5 ml of scintillation cocktail in a scintillation counter.
(§1) The compounds of formula (I) of the present invention where submitted to the above indicated assays, in order to determine both their GSK-3 inhibition activity and BACE activity inhibition. The results are indicated in Table I and Table II, in percentage of the respective enzyme activity.

[2] = molecular target: T1, rhBACE-1 β-Secretase recombinant human (Homo sapiens, UniProt P56817); experiment: BACE assay (FRET); assay type: biochemical; details: percentage of enzyme activity
T1 construct: purchased R&D Systems 931-AS
Description: The aim of this assay is to determine if a compound, either synthetic or of marine origin, is a BACE-1 inhibitor, to avoid the formation of Aβ. This assay is based on FRET technology (Fluorescence Resonance Energy Transfer). FRET is used to measure cleavage of a peptide substrate, among other uses. […] When a substrate peptide cleavage occurs, the energy balance is broken and all the donor fluorescence can be observed. The increase in fluorescence is linearly related to the rate of proteolysis (Gordon, G W et al., 1998). In this assay the reaction occurs between an enzyme, purified BACE-1, and a fluorogenic peptidic substrate who present the “Swedish mutation”. The peptide cleavage by BACE-1 produces fluorescence energy and enzymatic activity can be quantified.
The reagents which are used in this assay are the following: • rhBACE-1 β-Secretase recombinant human (R&D Systems. Ref. 931-AS). • Fluorogenic Peptide Substrate IV (R&D Systems. Ref. ES004). • Beta-SECRETASE INHIBITOR H-4848. (BACHEM. Ref. H-4848.0001). • Sodium acetate.
The assay is carried out in a 96 wells microplate. The final concentration of substrate is 3.5 μM per well, and the enzyme concentration is 0.5 μg/ml. The final volume of the assay is 100 μl per well and all reagents are diluted in Reaction Buffer. The compounds are tested at a concentration of 10^−5 and 10^−6 M. The control in the assay is the commercial inhibitor β-Secretase inhibitor H-4848 from BACHEM, which is tested at 300 nM. All the samples and controls are studied by duplicate.
The plate is mixed gently and changes in the fluorescence are measured using a fluorimeter plate reader, with 320 nm excitation filter and 405 nm emission filter. The temperature should be preferably maintained between 25 and 30° C. Measurements are carried out every ten minutes during an hour. The first measure is subtracted from the last to calculate the fluorescence increase, evaluating the enzymatic activity. The 100% activity is calculated as the mean of the results of wells without sample or inhibitor.
In the cases where abnormal effects in fluorescence were detected, BACE inhibition activity was assayed using BACE-1 (beta-Secretase) FRET ASSAY KIT (Invitrogen, Ref. P2985). Fluorescence was measured with a fluorimeter plate reader, with 544 nm excitation filter and 580 nm emission filter.
as §1

Chain of Recombinant human glycogen synthase kinase 3 beta (P49841 whole entry): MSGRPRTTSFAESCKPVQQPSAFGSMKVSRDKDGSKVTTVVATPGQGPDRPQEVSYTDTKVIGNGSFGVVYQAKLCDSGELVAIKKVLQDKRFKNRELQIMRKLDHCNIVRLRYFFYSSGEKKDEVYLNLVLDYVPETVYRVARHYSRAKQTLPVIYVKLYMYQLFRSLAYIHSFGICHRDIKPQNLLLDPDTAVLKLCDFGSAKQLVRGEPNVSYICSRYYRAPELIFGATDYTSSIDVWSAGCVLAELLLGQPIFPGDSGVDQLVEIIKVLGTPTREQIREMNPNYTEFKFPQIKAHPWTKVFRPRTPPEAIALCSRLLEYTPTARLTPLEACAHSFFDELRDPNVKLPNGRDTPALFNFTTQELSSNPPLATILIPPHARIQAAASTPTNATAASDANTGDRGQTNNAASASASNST
T1 sequence (P56817 46-457 limits assumed): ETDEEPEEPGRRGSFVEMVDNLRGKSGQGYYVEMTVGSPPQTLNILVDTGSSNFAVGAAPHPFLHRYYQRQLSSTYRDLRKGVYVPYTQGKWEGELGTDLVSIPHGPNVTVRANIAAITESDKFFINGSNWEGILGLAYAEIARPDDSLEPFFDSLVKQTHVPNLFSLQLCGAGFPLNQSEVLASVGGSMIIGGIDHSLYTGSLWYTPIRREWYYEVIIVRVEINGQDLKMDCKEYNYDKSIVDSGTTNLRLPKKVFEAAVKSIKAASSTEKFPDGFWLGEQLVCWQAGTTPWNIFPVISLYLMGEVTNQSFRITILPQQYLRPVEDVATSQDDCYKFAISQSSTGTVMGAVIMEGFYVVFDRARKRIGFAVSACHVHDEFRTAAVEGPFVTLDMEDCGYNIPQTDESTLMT

Row | Structure (SMILES) | remaining activity at 25 µM [1] [%] | remaining activity at 50 µM [1] [%] | % of BACE activity ([2]; compound at 1 μM) [%] | % of BACE activity ([2]; compound at 10 μM) [%]
1 | COC(=O)c1ccc(OC)c(N(CC=C(C)CCC=C(C)COC2CCCCO2)CC=C(C)CCC=C(C)COC2CCCCO2)c1 (centres unmarked) [Compound 37, 3-{Bis-[3,7-dimethyl-8-(tetrahydro-pyran-2-yloxy)-octa-2,6-dienyl]-amino}-4-methoxy-benzoic acid methyl ester] | 24.6 | 1.71 | 50 ± 4 | 6.5 ± 1
2 | COc1ccc(C(=O)N2CCN(CC=Cc3ccccc3)CC2)cc1N(CC=C(C)CCC=C(C)C)CC=C(C)CCC=C(C)C [Compound 38, {3-[Bis-(3,7-dimethyl-octa-2,6-dienyl)-amino]-4-methoxy-phenyl}-[4-(3-phenyl-allyl)-piperazin-1-yl]-methanone] | 23.6 | 2.51 | 81.5 ± 9 | 35 ± 10
3 | COc1ccc(C(=O)N2CCN(CCO)CC2)cc1N(CC=C(C)CCC=C(C)C)CC=C(C)CCC=C(C)C [Compound 39, {3-[Bis-(3,7-dimethyl-octa-2,6-dienyl)-amino]-4-methoxy-phenyl}-[4-(2-hydroxy-ethyl)-piperazin-1-yl]-methanone] | 55.1 | 13.2 | 100 | 100
4 | CCC(C)Oc1ccc(C(=O)OC)cc1NCC=C(C)CCC=C(C)CCC=C(C)C (centres unmarked) [Compound 40, 4-sec-Butoxy-3-(3,7,11-trimethyl-dodeca-2,6,10-trienylamino)-benzoic acid methyl ester] | 111 | 99.4 | 100 | 100
5 | COc1ccc(C(=O)NC(=N)n2cccn2)cc1N(C/C=C(\C)CCC=C(C)C)C/C=C(\C)CCC=C(C)C [Compound 41] | 88.9 | 98.4 | 73 ± 2 | 75 ± 9
6 | CCCOc1ccc(C(=O)OC)cc1NC/C=C(\C)CC/C=C(\C)CCC=C(C)C [Compound 43] | 103 | 98.2 | 88.3 ± 3.8 | 27.5 ± 9.2
7 | COc1ccc(C(=O)NCCc2c[nH]cn2)cc1N(C/C=C(\C)CCC=C(C)C)C/C=C(\C)CCC=C(C)C [Compound 46] | 27.9 | 19.8 | 122.5 ± 23.3 | 115.5 ± 29
8 | CC(C)=CCC/C(C)=C/CC/C(C)=C/CNc1cc(C(=O)O)ccc1O [Compound 48] | 105 | 97.9 | 100 | 36.5 ± 0.7
